These compounds were tested against T1, human 11βHSD1 enzyme (Homo sapiens, UniProt P28845) (assay: 11βHSD1 cortisone to cortisol conversion, competitive HTRF assay). Details: human 11-βHSD; test concentration of 30 μM of compound.
T1 construct: baculovirus expressed N terminal 6-His tagged full length human 11βHSD1 enzyme; 6-His (N); made in house
Type: biochemical
Outline: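 Enzyme was baculovirus-expressed, N-terminal 6-His-tagged full-length human 11βHSD1, purified on a copper chelate column. Compounds were added in buffer containing 1% DMSO at 10-fold final concentration.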

T1 sequence (P28845 whole entry): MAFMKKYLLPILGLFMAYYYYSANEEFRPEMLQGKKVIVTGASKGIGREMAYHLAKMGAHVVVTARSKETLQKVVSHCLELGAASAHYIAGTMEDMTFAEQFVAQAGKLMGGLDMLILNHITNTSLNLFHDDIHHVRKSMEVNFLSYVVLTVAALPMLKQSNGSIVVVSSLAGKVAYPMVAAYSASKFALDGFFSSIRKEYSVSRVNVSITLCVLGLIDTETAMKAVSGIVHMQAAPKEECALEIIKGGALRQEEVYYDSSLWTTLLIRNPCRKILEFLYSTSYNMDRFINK

inhibition at 30 µM | SMILES
99.2% | CC(=O)N1CCN(c2ncc(C(=O)N3CCC(c4cccnc4)C3)c(C3CC3)n2)CC1 (centres unmarked) [Example 80, 1-(4-(4-cyclopropyl-5-(3-(pyridin-3-yl)pyrrolidine-1-carbonyl)pyrimidin-2-yl)piperazin-1-yl)ethanone]
95.2% | C[C@@H]1CN(CCNc2ncc(C(=O)N[C@H]3C4CC5CC3C[C@@](O)(C5)C4)c(C3CC3)n2)C[C@H](C)O1 [Example 73, 4-cyclopropyl-2-({2-[(2R,6S)-2,6-dimethylmorpholin-4-yl]ethyl}amino)-N-[(2r,5s)-5-hydroxyadamantan-2-yl]pyrimidine-5-carboxamide]
94% | O=C(N[C@H]1C2CC3CC1C[C@@](O)(C3)C2)c1cnc(N2CCSCC2)nc1C1CCC1 [Example 41, 4-Cyclobutyl-N-[(2r,5s)-5-hydroxyadamantan-2-yl]-2-thiomorpholin-4-ylpyrimidine-5-carboxamide]
97.8% | NCc1ncc(C(=O)N[C@H]2C3CC4CC2C[C@@](O)(C4)C3)c(C2CCCC2)n1 [Example 152, 2-(Aminomethyl)-4-cyclopentyl-N-[(2r,5s)-5-hydroxyadamantan-2-yl]pyrimidine-5-carboxamide]
97.5% | COc1ncc(C(=O)N[C@H]2C3CC4CC2C[C@@](O)(C4)C3)c(C2CC2)n1 [Example 33, 4-Cyclopropyl-N-[(2r,5s)-5-hydroxyadamantan-2-yl]-2-methoxypyrimidine-5-carboxamide]
95.8% | CSc1ncc(C(=O)N[C@H]2C3CC4CC2C[C@@](O)(C4)C3)c([C@@H]2CCCO2)n1 [Example 177, N-[(2r,5s)-5-hydroxyadamantan-2-yl]-2-methylsulfanyl-4-[(2S)-oxolan-2-yl]pyrimidine-5-carboxamide]
65.5% | C[C@@H]1CN(c2ncc(C(=O)N[C@H]3C4CC5CC3C[C@@](O)(C5)C4)c(C3CC(F)(F)C3)n2)C[C@H](C)O1 [Example 156, 4-(3,3-difluorocyclobutyl)-2-[(2S,6R)-2,6-dimethylmorpholin-4-yl]-N-[(2r,5s)-5-hydroxyadamantan-2-yl]pyrimidine-5-carboxamide]
97.6% | CCCSc1nc(N2CCC[C@@H](CC(=O)O)C2)ncc1C(=O)NC1CCCCC1 [Example 20, {(3S)-1-[5-(Cyclohexylcarbamoyl)-4-(propylthio)pyrimidin-2-yl]piperidin-3-yl}acetic acid]
97.3% | O=C(N[C@H]1C2CC3CC1C[C@@](O)(C3)C2)c1cnc(N2CC3CC2C[S+]3[O-])nc1C1CC1 (some centres unmarked) [Example 47, 4-Cyclopropyl-N-[(2r,5s)-5-hydroxyadamantan-2-yl]-2-(3-oxo-3 ?4-thia-6-azabicyclo[2.2.1]heptan-6-yl)pyrimidine-5-carboxamide]
95.7% | COCCN1CCN(c2ncc(C(=O)N[C@H]3C4CC5CC3C[C@@](O)(C5)C4)c(C3CCC3)n2)CC1 [Example 87, 4-cyclobutyl-N-[(2r,5s)-5-hydroxyadamantan-2-yl]-2-[4-(2-methoxyethyl)piperazin-1-yl]pyrimidine-5-carboxamide]
102% | COc1nc(OC2CCC2)ncc1C(=O)N[C@H]1C2CC3CC1C[C@@](O)(C3)C2 [Example 208, 2-(cyclobutyloxy)-N-[(2r,5s)-5-hydroxytricyclo[3.3.1.13,7]dec-2-yl]-4-methoxypyrimidine-5-carboxamide]
87.1% | O=C(N[C@H]1C2CC3CC1C[C@@](O)(C3)C2)c1cnc(OC2CCC2)nc1C1CC(F)(F)C1 [Example 157]
95.1% | CC(C)Nc1ncc(C(=O)N[C@H]2C3CC4CC2C[C@@](O)(C4)C3)c([C@@H]2CCCO2)n1 [Example 179, N-[(2r,5s)-5-hydroxyadamantan-2-yl]-4-[(2S)-oxolan-2-yl]-2-(propan-2-ylamino)pyrimidine-5-carboxamide]
95.8% | CCCSc1ncc(C(=O)N[C@H]2C3CC4CC2C[C@@](O)(C4)C3)c(SCCC)n1 [Example 16, N-[(2r,5s)-5-hydroxyadamantan-2-yl]-2,4-bis(propylsulfanyl)pyrimidine-5-carboxamide]
97.3% | CC(C)(CO)Nc1ncc(C(=O)N[C@H]2C3CC4CC2C[C@@](O)(C4)C3)c(C2CCC2)n1 [Example 95, 4-cyclobutyl-N-[(2r,5s)-5-hydroxyadamantan-2-yl]-2-[(2-hydroxy-1,1-dimethylethyl)amino]pyrimidine-5-carboxamide]
106% | O=C(N[C@H]1C2CC3CC1C[C@@](O)(C3)C2)c1cnc(N2CCSCC2)nc1C1CC1 [Example 35, 4-Cyclopropyl-N-[(2r,5s)-5-hydroxyadamantan-2-yl]-2-thiomorpholin-4-ylpyrimidine-5-carboxamide]
98% | CNc1ncc(C(=O)N[C@H]2C3CC4CC2C[C@@](O)(C4)C3)c(C2CC2)n1 [Example 34, 4-Cyclopropyl-N-[(2r,5s)-5-hydroxyadamantan-2-yl]-2-methylaminopyrimidine-5-carboxamide]

inhibition at 30 µM | SMILES
101% | CCCSc1ncc(C(=O)N[C@H]2C3CC4CC2C[C@@](O)(C4)C3)c(N2CCN(C(C)=O)CC2)n1 [Example 25, 4-(4-Acetylpiperazin-1-yl)-N-[(2r,5 s)-5-hydroxyadamantan-2-yl]-2-propylsulfanylpyrimidine-5-carboxamide]
108% | Cc1ncc(C(=O)N[C@H]2C3CC4CC2C[C@@](O)(C4)C3)c(C2CCC(F)(F)C2)n1 (some centres unmarked) [Example 184, 4-(3,3-Difluorocyclopentyl)-N-[(2r,5s)-5-hydroxyadamantan-2-yl]-2-methylpyrimidine-5-carboxamide]
89.5% | CCCSc1ncc(C(=O)N[C@H]2C3CC4CC2C[C@@](O)(C4)C3)c(NC)n1 [Example 22, N-[(2r,5s)-5-hydroxyadamantan-2-yl]-4-methylamino-2-propylsulfanylpyrimidine-5-carboxamide]
100% | CCCSc1nc(N2CCN(C(=O)N(C)C)CC2)ncc1C(=O)NC1C2CC3CC(C2)CC1C3 (centres unmarked) [Example 29, N-(2-adamantyl)-2-[4-(dimethylcarbamoyl)piperazin-1-yl]-4-propylsulfanyl-pyrimidine-5-carboxamide]
96.1% | O=C(N[C@H]1C2CC3CC1C[C@](O)(C3)C2)c1cnc(NC2CCCC2)nc1C1CCCC1 [Example 130, 4-cyclopentyl-2-(cyclopentylamino)-N-[(2r,5s)-5-hydroxyadamantan-2-yl]pyrimidine-5-carboxamide]
93.1% | O=C(N[C@H]1C2CC3CC1C[C@@](O)(C3)C2)c1cnc(OC2COC2)nc1C1CC1 [Example 78, 4-cyclopropyl-N-[(2r,5s)-5-hydroxyadamantan-2-yl]-2-(oxetan-3-yloxy)pyrimidine-5-carboxamide]
99.3% | Nc1ncc(C(=O)N[C@H]2C3CC4CC2C[C@@](O)(C4)C3)c(C2CC2)n1 [Example 49, 2-Amino-4-cyclopropyl-N-[(2r,5s)-5-hydroxyadamantan-2-yl]pyrimidine-5-carboxamide]
98.4% | O=C(N[C@H]1C2CC3CC1C[C@@](O)(C3)C2)c1cnc(OC2COC2)nc1C1CCCC1 [Example 113, 4-cyclopentyl-N-[(2r,5s)-5-hydroxyadamantan-2-yl]-2-(oxetan-3-yloxy)pyrimidine-5-carboxamide]
94.9% | O=C(N[C@H]1C2CC3CC1C[C@@](O)(C3)C2)c1cnc(NC2CC2)nc1C1CCC1 [Example 88, 4-cyclobutyl-2-(cyclopropylamino)-N-[(2r,5s)-5-hydroxyadamantan-2-yl]pyrimidine-5-carboxamide]
96.6% | CC(=O)N1CCN(c2ncc(C(=O)N[C@H]3C4CC5CC3C[C@@](O)(C5)C4)c(C3CCCC3)n2)CC1 [Example 126, 2-(4-acetylpiperazin-1-yl)-4-cyclopentyl-N-[(2r,5s)-5-hydroxyadamantan-2-yl]pyrimidine-5-carboxamide]
89% | CCCSc1nc(N2CCN(C(C)=O)CC2)ncc1C(=O)N[C@H]1C2CC3CC1C[C@@](O)(C3)C2 [Example 26, 2-(4-Acetylpiperazin-1-yl)-N-[(2r,5 s)-5-hydroxyadamantan-2-yl]-4-propylsulfanylpyrimidine-5-carboxamide]
99.1% | C[C@H]1COCCN1c1ncc(C(=O)N[C@H]2C3CC4CC2C[C@@](O)(C4)C3)c(C2CCCC2)n1 [Example 123]
102% | C[C@@H]1CN(CCNc2ncc(C(=O)N[C@H]3C4CC5CC3C[C@@](O)(C5)C4)c(C3CCCC3)n2)C[C@H](C)O1 [Example 148, 4-cyclopentyl-2-({2-[(2R,6S)-2,6-dimethylmorpholin-4-yl]ethyl}amino)-N-[(2r,5s)-5-hydroxytricyclo[3.3.1.13,7]dec-2-yl]pyrimidine-5-carboxamide]
101% | O=C(N[C@H]1C2CC3CC1C[C@@](O)(C3)C2)c1cnc(N2C[C@@H]3C[C@H]2CO3)nc1C1CCCC1 [Example 120, 4-cyclopentyl-N-[(2r,5s)-5-hydroxyadamantan-2-yl]-2-[(1S,4S)-2-oxa-5-azabicyclo[2.2.1]heptan-5-yl]pyrimidine-5-carboxamide]
93.5% | O=C(N[C@H]1C2CC3CC1C[C@@](O)(C3)C2)c1cnc(N2CCS(=O)(=O)CC2)nc1C1CC1 [Example 37, 4-Cyclopropyl-2-(1,1-dioxo-1,4-thiazinan-4-yl)-N-[(2r,5s)-5-hydroxyadamantan-2-yl]pyrimidine-5-carboxamide]
101% | O=C(N[C@H]1C2CC3CC1C[C@@](O)(C3)C2)c1cnc(NC2COC2)nc1[C@H]1CCCO1 [Example 173, N-[(2r,5s)-5-hydroxyadamantan-2-yl]-2-(oxetan-3-ylamino)-4-[(2R)-oxolan-2-yl]pyrimidine-5-carboxamide]
96% | CC(C)Oc1nc(OC2CCC2)ncc1C(=O)N[C@H]1C2CC3CC1C[C@@](O)(C3)C2 [Example 218, 2-(cyclobutyloxy)-N-[(2r,5s)-5-hydroxytricyclo[3.3.1.13,7]dec-2-yl]-4-(1-methylethoxy)pyrimidine-5-carboxamide]

Same assay, conditions: recombinant N terminal 6-His tagged full length human 11βHSD1; cortisone 160 nM; 25 minutes at 37° C.

IC50 | SMILES
33 nM | COc1ncc(C(=O)N[C@H]2C3CC4CC2C[C@@](O)(C4)C3)c(C2CC2)n1 [Example 33, 4-Cyclopropyl-N-[(2r,5s)-5-hydroxyadamantan-2-yl]-2-methoxypyrimidine-5-carboxamide]
2 nM | CCCSc1nc(N2CCC[C@@H](CC(=O)O)C2)ncc1C(=O)NC1CCCCC1 [Example 20, {(3S)-1-[5-(Cyclohexylcarbamoyl)-4-(propylthio)pyrimidin-2-yl]piperidin-3-yl}acetic acid]
2 nM | CCCSc1ncc(C(=O)N[C@H]2C3CC4CC2C[C@@](O)(C4)C3)c(SCCC)n1 [Example 16, N-[(2r,5s)-5-hydroxyadamantan-2-yl]-2,4-bis(propylsulfanyl)pyrimidine-5-carboxamide]
13 nM | CCCSc1nc(N2CCN(C(=O)N(C)C)CC2)ncc1C(=O)NC1C2CC3CC(C2)CC1C3 (centres unmarked) [Example 29, N-(2-adamantyl)-2-[4-(dimethylcarbamoyl)piperazin-1-yl]-4-propylsulfanyl-pyrimidine-5-carboxamide]
